Toxic doses and inconclusive results are not listed.

This is an account of results in PubChem BioAssay AID248 (DTP/NCI, 2004).

This experiment has as its system L1210 leukemia ip in BDF1 mice, survival T/C. Description: NCI In Vivo Anticancer Drug Screen. Data for tumor model L1210 Leukemia (intraperitoneal) in B6D2F1 (BDF1) mice. The following applies: endpoint: mean survival time, higher = longer survival. The method, boiled down:
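Ratio derived from survival: compound-dosed mice over vehicle-dosed mice, all bearing a transplantable tumor.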

Where [1] appears, read: dose: 100.0 mg/kg/injection, schedule: Q01DX001 (ip), vehicle: saline.
[2] abbreviates: dose: 200.0 mg/kg/injection, schedule: Q01DX001 (ip), vehicle: saline.
The mark [3] stands for this setting: dose: 400.0 mg/kg/injection, schedule: Q01DX001 (ip), vehicle: saline.
[4] abbreviates: dose: 75.0 mg/kg/injection, schedule: Q01DX001 (ip), vehicle: saline.
[5] abbreviates: dose: 150.0 mg/kg/injection, schedule: Q01DX001 (ip), vehicle: saline.
[6] abbreviates: dose: 300.0 mg/kg/injection, schedule: Q01DX001 (ip), vehicle: saline.
The mark [7] stands for this setting: dose: 100.0 mg/kg/injection, schedule: Q04DX003 (ip), vehicle: Klucel (hydroxypropylcellulose) (HPC).
Setting [8] is: dose: 200.0 mg/kg/injection, schedule: Q04DX003 (ip), vehicle: Klucel (hydroxypropylcellulose) (HPC).
[9] abbreviates: dose: 400.0 mg/kg/injection, schedule: Q04DX003 (ip), vehicle: Klucel (hydroxypropylcellulose) (HPC).
The mark [10] stands for this setting: dose: 25.0 mg/kg/injection, schedule: Q01DX009 (ip), vehicle: Klucel (hydroxypropylcellulose) (HPC).
Setting [11] is: dose: 50.0 mg/kg/injection, schedule: Q01DX009 (ip), vehicle: Klucel (hydroxypropylcellulose) (HPC).
[12] abbreviates: dose: 100.0 mg/kg/injection, schedule: Q01DX009 (ip), vehicle: Klucel (hydroxypropylcellulose) (HPC).
[13] abbreviates: dose: 200.0 mg/kg/injection, schedule: Q01DX009 (ip), vehicle: Klucel (hydroxypropylcellulose) (HPC).
The mark [14] stands for this setting: dose: 100.0 mg/kg/injection, schedule: Q01DX009 (ip), vehicle: saline.
The mark [15] stands for this setting: dose: 100.0 mg/kg/injection, schedule: Q01DX001 (ip), vehicle: carboxymethylcellulose (CMC).

Turning to `Nc1nc(N)c2nc(CN(CCO)c3ccc(C(=O)NC(CCC(=O)O)C(=O)O)cc3)cnc2n1` (stereo unspecified), the T/C reads like this: (dose: 1.0 mg/kg/injection, schedule: Q01DX009 (ip), vehicle: sodium bicarbonate) 151 % of control; (dose: 2.0 mg/kg/injection, schedule: Q01DX009 (ip), vehicle: Klucel (hydroxypropylcellulose) (HPC)) 174 % of control; (dose: 2.0 mg/kg/injection, schedule: Q01DX009 (ip), vehicle: sodium bicarbonate) 172 % of control; (dose: 4.0 mg/kg/injection, schedule: Q01DX009 (ip), vehicle: Klucel (hydroxypropylcellulose) (HPC)) 160 % of control; (dose: 4.0 mg/kg/injection, schedule: Q01DX009 (ip), vehicle: sodium bicarbonate) 178 % of control; (dose: 8.0 mg/kg/injection, schedule: Q01DX009 (ip), vehicle: Klucel (hydroxypropylcellulose) (HPC)) 151 % of control. Also, the T/C reads like this: (dose: 8.0 mg/kg/injection, schedule: Q01DX009 (ip), vehicle: sodium bicarbonate) 113 % of control; (dose: 16.0 mg/kg/injection, schedule: Q01DX009 (ip), vehicle: Klucel (hydroxypropylcellulose) (HPC)) 108 % of control; (dose: 16.0 mg/kg/injection, schedule: Q01DX009 (ip), vehicle: sodium bicarbonate) 89 % of control; (dose: 32.0 mg/kg/injection, schedule: Q01DX009 (ip), vehicle: Klucel (hydroxypropylcellulose) (HPC)) 96 % of control.

For the compound `N#CCCOc1ccccc1`, the T/C is, setting by setting: under setting [1], 108 % of control; under setting [2], 108 % of control; under setting [3], 104 % of control.

Turning to `C/C=C(\CC)C1(CC)C(=O)NC(=O)NC1=O`, the T/C reads like this: (dose: 75.0 mg/kg/injection, schedule: Q01DX001 (ip), vehicle: other) 97 % of control; under setting [4], 102 % of control; (dose: 150.0 mg/kg/injection, schedule: Q01DX001 (ip), vehicle: other) 97 % of control; under setting [5], 103 % of control; (dose: 300.0 mg/kg/injection, schedule: Q01DX001 (ip), vehicle: other) 91 % of control; under setting [6], 112 % of control.

On to `O=Cc1[nH]c(=S)[nH]c(=O)c1Cc1ccc(Cl)cc1`, for which the T/C under setting [1] was 96 % of control, the T/C under setting [2] was 93 % of control and the T/C under setting [3] was 96 % of control.

On to `c1ccc([C@H]2N[C@H]2c2ccccc2)cc1`, for which the T/C is, setting by setting: under setting [7], 96 % of control; under setting [8], 95 % of control; under setting [9], 98 % of control.

With `ClN=C(c1ccccc1)c1ccccc1`, the T/C is 110 % of control (dose: 12.0 mg/kg/injection, schedule: Q01DX009 (ip), vehicle: Klucel (hydroxypropylcellulose) (HPC)); 102 % of control under setting [10]; 107 % of control under setting [11]; 100 % of control under setting [7]; 98 % of control under setting [8].

Turning to `Cc1cc(C)c(C(O)C(=O)O)c(C)c1` (stereo unspecified), the T/C runs as follows: under setting [4], 108 % of control; under setting [5], 97 % of control; under setting [6], 101 % of control.

For the compound `Cc1ccc(S(=O)(=O)NCCCCC(N)C(=O)O)cc1` (stereo unspecified), the T/C by setting is: under setting [12], 98 % of control; under setting [7], 98 % of control; under setting [13], 98 % of control; under setting [8], 108 % of control; (dose: 400.0 mg/kg/injection, schedule: Q01DX009 (ip), vehicle: Klucel (hydroxypropylcellulose) (HPC)) 100 % of control; under setting [9], 98 % of control.

In the case of `c1ccc(COc2ccccn2)cc1`, the T/C under setting [11] was 95 % of control, the T/C under setting [12] is 97 % of control, the T/C under setting [7] is 98 % of control and the T/C under setting [8] was 98 % of control.

For the compound `O=C1COC(=O)CO1`, the T/C (dose: 50.0 mg/kg/injection, schedule: Q04DX003 (ip), vehicle: Klucel (hydroxypropylcellulose) (HPC)) is 104 % of control; the T/C under setting [14] is 86 % of control; the T/C under setting [7] was 100 % of control; the T/C (dose: 200.0 mg/kg/injection, schedule: Q01DX009 (ip), vehicle: saline) was 86 % of control; the T/C under setting [8] is 96 % of control.

As to `CN(C)N=Nc1c(O)ccc2c1CCC1C2CCC2(C)C(=O)CCC12` (stereo unspecified), the T/C runs as follows: (dose: 12.5 mg/kg/injection, schedule: Q01DX009 (ip), vehicle: Klucel (hydroxypropylcellulose) (HPC)) 92 % of control; under setting [10], 94 % of control; under setting [11], 107 % of control.

In the case of `O=C(Nc1ccccc1F)Oc1cccc(C(F)(F)F)c1`, the T/C is, setting by setting: (dose: 25.0 mg/kg/injection, schedule: Q01DX009 (ip), vehicle: saline) 103 % of control; (dose: 50.0 mg/kg/injection, schedule: Q01DX009 (ip), vehicle: saline) 110 % of control; under setting [14], 103 % of control.

For `CC1(C)C=C(C(N)=O)C(C)(C)N1O`, the T/C is, setting by setting: (dose: 50.0 mg/kg/injection, schedule: Q01DX009 (ip), vehicle: other) 98 % of control; (dose: 100.0 mg/kg/injection, schedule: Q01DX009 (ip), vehicle: other) 101 % of control; (dose: 200.0 mg/kg/injection, schedule: Q01DX009 (ip), vehicle: other) 95 % of control.

`O=NN(C(=O)Nc1ccccc1)c1ccccc1`: the T/C by setting is: (dose: 2.0 mg/kg/injection, schedule: Q01DX001 (ip), vehicle: carboxymethylcellulose (CMC)) 106 % of control; (dose: 4.0 mg/kg/injection, schedule: Q01DX001 (ip), vehicle: carboxymethylcellulose (CMC)) 112 % of control; (dose: 6.0 mg/kg/injection, schedule: Q01DX001 (ip), vehicle: carboxymethylcellulose (CMC)) 112 % of control; (dose: 8.0 mg/kg/injection, schedule: Q01DX001 (ip), vehicle: carboxymethylcellulose (CMC)) 110 % of control; (dose: 10.0 mg/kg/injection, schedule: Q01DX001 (ip), vehicle: carboxymethylcellulose (CMC)) 104 % of control; (dose: 12.5 mg/kg/injection, schedule: Q01DX001 (ip), vehicle: carboxymethylcellulose (CMC)) 108 % of control. Besides, the T/C (dose: 25.0 mg/kg/injection, schedule: Q01DX001 (ip), vehicle: carboxymethylcellulose (CMC)) is 100 % of control; the T/C (dose: 50.0 mg/kg/injection, schedule: Q01DX001 (ip), vehicle: carboxymethylcellulose (CMC)) was 102 % of control; the T/C under setting [15] was 108 % of control.

For `Cc1ccc(NC(=O)c2ccc(Cl)cc2)c(C)c1`, the T/C runs as follows: under setting [12], 94 % of control; under setting [7], 106 % of control; under setting [13], 100 % of control; under setting [8], 96 % of control; under setting [9], 98 % of control.

On to `O=c1ccn(C2CC(O)C(CO)C2)c(=S)[nH]1` (stereo unspecified), for which the T/C is, setting by setting: (dose: 50.0 mg/kg/injection, schedule: Q01DX009 (ip), vehicle: saline with Tween-80) 103 % of control; (dose: 100.0 mg/kg/injection, schedule: Q01DX009 (ip), vehicle: saline with Tween-80) 107 % of control; (dose: 200.0 mg/kg/injection, schedule: Q01DX009 (ip), vehicle: saline with Tween-80) 93 % of control.

As to `CC1CCCC(C)[N+]1=C(Nc1cccc(Cl)c1)c1ccccc1` (stereo unspecified), the T/C reads like this: (dose: 100.0 mg/kg/injection, schedule: Q04DX002 (ip), vehicle: Klucel (hydroxypropylcellulose) (HPC)) 97 % of control; (dose: 200.0 mg/kg/injection, schedule: Q04DX002 (ip), vehicle: Klucel (hydroxypropylcellulose) (HPC)) 106 % of control; (dose: 400.0 mg/kg/injection, schedule: Q04DX002 (ip), vehicle: Klucel (hydroxypropylcellulose) (HPC)) 101 % of control.

Take `Nc1ncnc2nc(-c3ccc(C(=O)c4cccc(NC(=O)Nc5ccc(S(=O)(=O)F)cc5)c4)cc3)[nH]c12`: the T/C is 95 % of control (dose: 37.5 mg/kg/injection, schedule: Q01DX001 (ip), vehicle: saline); 92 % of control under setting [4]; 90 % of control under setting [5].

Consider `Nc1ccc2c(c1)Cc1cc(NC=O)ccc1-2`, for which the T/C by setting is: under setting [15], 101 % of control; (dose: 200.0 mg/kg/injection, schedule: Q01DX001 (ip), vehicle: carboxymethylcellulose (CMC)) 97 % of control; (dose: 400.0 mg/kg/injection, schedule: Q01DX001 (ip), vehicle: carboxymethylcellulose (CMC)) 92 % of control.

In the case of `O=C(O)c1ccccc1C(=O)c1ccccc1C(=O)O`, the T/C reads like this: (dose: 100.0 mg/kg/injection, schedule: Q04DX003 (ip), vehicle: saline with Tween-80) 102 % of control; (dose: 200.0 mg/kg/injection, schedule: Q04DX003 (ip), vehicle: saline with Tween-80) 98 % of control; (dose: 400.0 mg/kg/injection, schedule: Q04DX003 (ip), vehicle: saline with Tween-80) 102 % of control.
